Entries after “also recorded” stand apart in the source; their conditions may differ.
Experiments:
[1] = Test 4: inhibition of radical production from DPPH; details: tested substance 100 μM in methanol, 30 minutes, absorbance 517 nm
Description: Test 4 is a colorimetric test which must not be satisfied by the precursor of B or B1 (precursor of the X2 or X2a of the formulas (I) and (II) respectively). The inhibition of the production of radicals from DPPH (2,2-diphenyl-1-picryl-hydrazyl) is described in M. S. Nenseter et Al., Atheroscler. Thromb. 15, 1338-1344, 1995. 100 μM solutions in methanol of the tested substances are prepared, and an aliquot of each of said solutions is added to a DPPH solution in methanol 0.1 M. After having stored the solutions at room temperature away from light for 30 minutes, their absorbances are read at the wave length of 517 nm, together with that of the corresponding DPPH solution at the same concentration. The absorbance decrease with respect to that of the solution of DPPH at the same concentration of the test solutions is determined. The effectiveness of the tested compound in inhibiting formation of radicals by DPPH is expressed by the following formula: (1−AS/AC)×100 wherein AS and AC are respectively the absorbance values of the solution containing the test compound together with DPPH and of the solution containing only DPPH. Test 4 is satisfied when the inhibition is equal or greater than 50%.
Test 4: Inhibition of the Radical Production from DPPH of Some Substances Used as Precursors of B or B1 (Ref. Formulas I and II of the Invention)
The method is based on a calorimetric test in which DPPH (2,2-diphenyl-1-picryl-hydrazyl) is used as the compound-forming radicals (M. S. Nenseter et Al., Atheroscler. Thromb. 15, 1338-1344, 1995).
Solutions in methanol of the tested substances at a final concentration 100 μM are initially prepared. 0.1 ml of each of these solutions are added to aliquots of 1 ml of a methanol solution 0.1 M of DPPH and then the final volume is brought to 1.5 ml. After having stored the solutions at room temperature away from light for 30 minutes, the absorbance at the wave length of 517 nm is read. It is determined the absorbance decrease with respect to the absorbance of a solution containing the same concentration of DPPH.
The efficacy of the test compound to inhibit the production of radicals, or antiradical activity, is expressed by the following formula: (1−AS/AC)×100 wherein AS and AC are, respectively, the absorbance values of the solution containing the test compound together+DPPH and of the solution containing only DPPH.

gastrointestinal mucosa = assay: Test 1 (NEM): gastric tolerability of precursor drugs in rats treated or not with N-ethylmaleimide; details: rat, in vivo, 24 h
Description: The animals (rats) are distributed in the following groups (no. 10 animals for group):
• 1° group: treatment: only carrier (aqueous suspension 1% w/v of carboxymethylcellulose, dose: 5 ml/Kg when the drug is administered by os, or a physiologic solution when parenterally administered, i.e. by subcutaneous, intraperitoneal, intravenous or intramuscular route), • 2° group: treatment: carrier as above defined+NEM, B) Groups Treated with the Drug: • group I: treatment: carrier+drug, • group II: treatment: carrier+drug+NEM.
The administration routes are those known for the drug, and can be the oral or subcutaneous, intraperitoneal, intravenous or intramuscular route.
(§1) The animals are sacrificed after 24 hours and then one proceeds to the evaluation of the damage to the gastrointestinal mucosa.
Test 1—Experimental Model in Vivo with N-ethylmaleimide (NEM): Study of the Gastric Tolerability of Some Drugs Screened as Precursors of the Compounds of the Invention.
The animals (rats, weight about 200 g) are distributed in the following groups (No. 10 animals for group):
• 1° group: treatment: only carrier (aqueous suspension 1% w/v of carboxymethylcellulose, dose: 5 ml/Kg when the drug is administered by os, physiologic solution when by parenteral route), • 2° group: treatment: carrier+NEM B) Groups Administered with Each Drug: • group I: treatment: carrier+drug, • group II: treatment: carrier+drug+NEM.
The drug is administered one hour later, in suspension in the carrier. Animals are sacrificed after 24 hours and evaluation of the damage to the gastrointestinal mucosa is made by counting the number of rats, inside each group, with lesions to the stomach at a visual inspection. The total number of said rats is then divided by the total number of rats of the group and multiplied by 100.

[2] = system: Human endothelial cells of the umbilical vein; assay: Test 2 (CIP): apoptosis (DNA fragmentation) induced by cumene hydroperoxide in endothelial cells; format: cell-based; details: drug 10^-4 M; for inhibition of apoptosis induced by CIP (in words, t Student p<0.01): CIP 5 mM
Description: Test 2 (CIP): Protection parameter of endothelial cell against the oxidative stress induced by cumene hydroperoxide (CIP).
Human endothelial cells of the umbilical vein are prepared according to an usual standard procedure. Fresh umbilical veins are filled with a 0.1% by weight collagenase solution and incubated at 37° C. for 5 minutes.
The cells are collected from the perfusate by centrifugation and harvested in culture flasks T-75, pretreated with human fibronectin. The cells are then harvested in the same medium, further added with 10 ng/ml of bovine hypothalamic growth factor. When the cells of the primary cell culture (i.e. that directly obtained from ex-vivo) form a single layer of confluent cells (about 8,000,000 cells/flask), the culture is stopped and the layers washed and trypsinized. The cellular suspensions are transferred into the wells of a cell culture plate having 24 wells, half of which is then additioned with the same culture medium containing the drug at a 10^−4M concentration, and harvested in a thermostat at 37° C. at a constant moisture. Only the cells coming from said first sub-cultures are used for the experiments with cumene hydroperoxide (CIP).
Before starting the test, the cellular culture medium is removed and the cellular layers are carefully washed with a physiologic solution at a temperature of 37° C. The wells of the culture plate are then incubated for one hour with CIP at a 5 mM concentration in the culture medium. […] 5 replicates for each sample are carried out.
Human endothelial cells of the umbilical vein are prepared according to a standard method. Fresh umbilical veins are filled with a collagenase solution 0.1% by weight and incubated at 37° C. for 5 minutes.
The cells are collected from the perfusate by centrifugation at 800 rpm and harvested in culture flasks T-75, pretreated with human fibronectin. Cells are then harvested in the same medium, added with bovine hypothalamic growth factor (100 ng/ml). When the cells of the primary cell culture (the cells directly removed from ex-vivo umbilical vein) form a single layer of confluent cells (about 8,000,000 cells/flask), harvesting is stopped and the layers are washed and trypsinized. The cellular suspensions are transferred into wells of a culture plate having 24 wells, half of said wells being added with the same culture medium containing the drug at a 10^−4M concentration, and harvested in a thermostat at 37° C. at a constant moisture (90%), CO2=5%. When the drug is not soluble in the culture medium, it is formerly dissolved in a small amount of dimethylsulphoxide. The maximum amount of dimethylsulphoxide which can be added to the culture medium is 0.5%. Only the cells coming from these first subcultures are used for the tests with cumene hydroperoxide (CIP). The cells are identified as endothelial cells by morphological examination and by the specific immunological reaction towards factor VIII; these cultures did never show contaminations from myocytes or fibroblasts.
Before starting the test, the cellular culture medium is removed and the cellular layers are carefully washed with a standard physiologic solution buffered with phosphate 0.1 M pH 7.0, at the temperature of 37° C. The content of each well is then incubated for one hour with a CIP suspension in the culture medium at a 5 mM concentration. Evaluation of the cellular damage (apoptosis) is carried out by determining the percent variation of the DNA fragmentation in the cultures containing the drug+CIP with respect to the controls treated with CIP only. […] The fluorescence of each sample was determined on 5 replicates. Statistic evaluation has been made with t Student test (p<0.01).

in vivo = details: rat, in vivo
Description: as §1

gastric mucosa = assay: Example F6: gastric tolerability of invention compounds versus precursor drugs, with or without L-NAME; format: in vivo, rats; details: rat, in vivo, 4 weeks
Source text: Gastric Tolerability Test of the Compounds According to the Invention in the Confront of the Corresponding Precursor Drugs in Conditions of Endothelial Dysfunctions Induced by L-NAME (N^w-nitro-L-arginine-methyl ester).

[3] = system: gastrointestinal mucosa, GPT, blood pressure; details: rat, in vivo; for Gastroenteropathy % without L-NAME: 4 weeks
Description: The endothelial dysfunction is evaluated by determining the damage to the gastrointestinal mucosa, the hepatic damage and blood hypertension induced by administration of L-NAME.
The animals (rats) are divided in groups as herein below shown. The group receiving L-NAME is treated for 4 weeks with said compound dissolved at a concentration of 400 mg/litre in drinking water. The following groups are constituted (No. 10 animals for group):
(§2) • 1° group: only carrier (aqueous suspension 1% w/v of carboxymethylcellulose, dose: 5 ml/Kg when the drug is administered by os, phisiologic solution when administered parenterally), • 2° group: carrier+L-NAME, B) Groups Administered with the Drug: • 3° group: carrier+drug, • 4° group: carrier+drug+L-NAME.
The administration routes are those known for the drug, and can be the oral or subcutaneous, intraperiteneal, intravenous or intramuscular route. […] The drug is administered once a day for 4 weeks.
At the end of the four weeks treatment access to water is prevented and after 24 hours the animals are sacrificed.
One hour before the sacrifice blood-pressure is determined, and a blood pressure increase is taken as an evaluation of the damage to vascular endothelium. […] The hepatic damage is determined by evaluation of the glutamic-pyruvic transaminase (GPT increase) after sacrifice.
Test 3-Experimental in Vivo Model with N^w-nitro-L-arginine-methyl ester (L-NAME): Gastric Tolerability (Gastrointestinal Damage Incidence), Hepatic (GPT Dosage, Glutamic-pyruvic Transaminase) and Cardiovascular (Blood Pressure) Tolerability of Some Drugs Screened as Precursors of the Compounds of the Invention.
The endothelial dysfunction is evaluated by determining the damage induced by L-NAME administration to the gastrointestinal mucosa, the hepatic damage (GPT increase), and the vascular endothelium or cardiovascular damage as blood hypertension.
The animals (rats, average weight 200 g) are divided in groups as herein below described. The group receiving L-NAME is treated for 4 weeks with said compound dissolved at the concentration of 400 mg/litre in drinking water. The following groups (No. 10 animals for group) are constituted:
as §2, with “group: treatment:” for “group:”, “physiologic” for “phisiologic”, “by parenteral route),” for “administered parenterally),”, “Treated” for “Administered”
Each drug is administered once a day for 4 weeks.
At the end of the four weeks access to water is prevented and after 24 hours the animals are sacrificed.
One hour before the sacrifice blood pressure is determined and a blood pressure increase is taken as an indication of a damage being occurred to vascular endothelium.
The hepatic damage is determined by evaluation after the sacrifice of the glutamic-pyruvic transaminase (GPT increase).
The % gastric lesions have been determined as in Test 1.

## O=C(O)c1cc(O)ccc1O [Gentisic acid]
[1]
  % inhibition radical production from DPPH: 80%

## COc1cc(/C=C/C(=O)O)ccc1O [Ferulic acid]
[1]
  % inhibition radical production from DPPH: 100%

## N[C@@H](CS)C(=O)O [Cisteine]
[1]
  % inhibition radical production from DPPH: 100%

## COc1ccc2c(c1)c(CC(=O)O)c(C)n2C(=O)c1ccc(Cl)cc1 [Indomethacin]
Gastrointestinal mucosa
  Gastro-enteropathy (% incidence) without NEM: 0%
[2]
  inhibition of apoptosis induced by CIP (in words, t Student p<0.01): not significantly different with respect to that of the controls
[2]; listed as indomethacin
  inhibition of apoptosis induced by CIP (in words, t Student p<0.01): do not significantly inhibit apoptosis
In vivo; po
  MTD at 24 h: 7.5 mg/kg

## O=C1NC(C(=O)O)CS1 (stereo not drawn) [2-oxo-4-thiazolidin carboxylic acid]
[1]
  % inhibition radical production from DPPH: 0%

## Nc1ccc(O)c(C(=O)O)c1 [Mesalamine]
Gastrointestinal mucosa
  Gastro-enteropathy (% incidence) without NEM: 0%
[2]
  inhibition of apoptosis induced by CIP (in words, t Student p<0.01): inhibit apoptosis; also recorded: inhibits the apoptosis induced by CIP

## Nc1c2c(nc3ccccc13)CCCC2 [Tacrine]
Gastrointestinal mucosa
  Gastro-enteropathy (% incidence) without NEM: 0%
[2]
  inhibition of apoptosis induced by CIP (in words, t Student p<0.01): do not significantly inhibit apoptosis
Gastric mucosa
  % gastropathy, animals not treated with L-NAME: 80%
  % gastropathy, animals treated with L-NAME: 70%
In vivo; sc
  MTD at 24 h: 1 mg/kg

## CC(=O)N[C@@H](CS)C(=O)O [N-acetylcisteine]
[1]; listed as N-acetylcysteine
  % inhibition radical production from DPPH: 100%

## COc1ccc2[nH]c([S+]([O-])Cc3ncc(C)c(OC)c3C)nc2c1 (stereo not drawn) [Omeprazol]
Gastrointestinal mucosa
  Gastro-enteropathy (% incidence) without NEM: 0%
[2]
  inhibition of apoptosis induced by CIP (in words, t Student p<0.01): do not significantly inhibit apoptosis
[3]
  GPT % without L-NAME: 100%
  Gastroenteropathy % without L-NAME: 0%
In vivo; sc
  MTD at 24 h: 30 mg/kg

## Nc1c(Br)cc(Br)cc1CN[C@H]1CC[C@H](O)CC1 [Ambroxol, 4-[(2-amino-3,5-dibromophenyl)methylamino]cyclohexanol]
Gastrointestinal mucosa
  Gastro-enteropathy (% incidence) without NEM: 0%
[2]; Homo sapiens, Endothelial cell, 1 h, CIP 5 mM for one hour, DNA fragmentation, read-out: Apoptosis % with respect to the controls treated only with CIP
  activity at 100 µM: 70%
[2]
  inhibition of apoptosis induced by CIP (in words, t Student p<0.01): inhibit apoptosis
Gastric mucosa
  % gastropathy, animals not treated with L-NAME: 60%
  % gastropathy, animals treated with L-NAME: 80%
In vivo; po
  MTD at 24 h: 25 mg/kg

## NCCCC(O)(P(=O)(O)O)P(=O)(O)O [Alendronate]
Gastrointestinal mucosa
  Gastro-enteropathy (% incidence) without NEM: 0%
[2]
  inhibition of apoptosis induced by CIP (in words, t Student p<0.01): do not significantly inhibit apoptosis
Gastric mucosa
  % gastropathy, animals not treated with L-NAME: 90%
  % gastropathy, animals treated with L-NAME: 70%

## COc1cccc2c1C(=O)c1c(O)c3c(c(O)c1C2=O)C[C@@](O)(C(=O)CO)C[C@@H]3O[C@H]1C[C@H](N)[C@H](O)[C@H](C)O1 [Doxorubicin]
[3]
  GPT % without L-NAME: 195%
  Gastroenteropathy % without L-NAME: 30%

— US7402600B2, “Nitroderivatives of cardiovascular agents” (NicOx S.A., priority 1999, dated 2008)
